Experimental data reported in patent US20120107323A1, “KINASE PROTEIN BINDING INHIBITORS” (University of Florida, priority 2009, published 2012).

Key:
A375 subcutaneous tumor = test: A375 melanoma xenograft in nude mice; type: in vivo; details: A375, 15 mg/kg daily intraperitoneal, 21 days, p<0.05
Protocol: Kinase Profiler Screening: Kinase specificity screening was performed with Invitrogen's SelectScreen® Kinase Profiling Services http://www.invitrogen.com/site/us/en/home/Products-and-Services/Services/Discoverv-Research/SelectScreen-Profiling-Service/SelectScreen-Kinase-Profiling-Service.html. The screening was performed with 1 μM compound, INT2-31, 10 μM ATP, and kinase substrates against ten recombinant kinases according to Z′-LYTET™ Kinase Assay. For PI3 kinase activity, 100 μM ATP, and kinase substrate were utilized with the Invitrogen Adapta® Universal Kinase Assay protocol. Tumor Growth in Nude Mice in vivo: Six week old athymic, female nude mice were purchased from Harlan Laboratory. The mice were maintained in the animal facility, and all experiments were performed in compliance with NIH animal-use guidelines and under an IACUC approved protocol. […] Tumor diameters were measured with calipers, and tumor volume in mm^3 was calculated using the formula [(width)^2×length]/2. At the end of experiment, tumor weight and volume were determined.
For the melanoma study, the University of Florida IACUC approved the following protocol (IACUC Study #200801077). […] Tumor diameters were measured with calipers, and tumor volume in mm^3 was calculated using the formula [(width)^2×length]/2. At the end of experiment, tumor weight and volume were determined.

[1] = system: PARP, caspase-9, caspase 8; test: Western blot of biochemical markers of the apoptotic pathway; type: cell-based
FAK and IGF-1R = target: T1, FAK and IGF-1R (Homo sapiens, UniProt Q05397); test: Coimmunoprecipitation of FAK and IGF-1R in A375 melanoma cells; type: cell-based; details: average IC50, A375 cells, immunoprecipitation with antibody against FAK; read-out: IC50, disruption of FAK/IGF-1R binding
T1 construct: endogenous in cells; host or cells: C8161 (A2) and A375 (A3) melanoma cells
Description: Computational Docking The crystal structures of the N-terminal domain of FAK (PDB code 2AL6) (22) and the kinase domain of IGF-1R(PDB 1P40A) (23) were utilized for in silico molecular modeling of their interaction as previously described. The three-dimensional coordinates of compound NSC344553 (INT2-31), obtained from the database of the National Cancer Institute, Developmental Therapeutics Program (NCI/DTP), were docked onto the predicted interface of the amino-terminus of FAK (amino acids 127-243) with the intracytoplasmic portion of IGF-1R (21). […] 100 orientations were created for NSC344553 in the target site and were scored using the computer program grid-based scoring function. […] The intermolecular energies for all configurations of NSC 344553 in binding to FAK-NT2 were calculated as the sum of electrostatic and van der Waals energies. These energy terms were evaluated as correlation functions, which were computed efficiently with Fast Fourier Transforms. […] Bound proteins were boiled in 6× Laemmli buffer and analyzed by SDS-PAGE and Western blotting. […] The intensity of the bands in the western blots was measured with scion image analysis software program. […]

T1 sequence (Q05397 2-1052 limits assumed): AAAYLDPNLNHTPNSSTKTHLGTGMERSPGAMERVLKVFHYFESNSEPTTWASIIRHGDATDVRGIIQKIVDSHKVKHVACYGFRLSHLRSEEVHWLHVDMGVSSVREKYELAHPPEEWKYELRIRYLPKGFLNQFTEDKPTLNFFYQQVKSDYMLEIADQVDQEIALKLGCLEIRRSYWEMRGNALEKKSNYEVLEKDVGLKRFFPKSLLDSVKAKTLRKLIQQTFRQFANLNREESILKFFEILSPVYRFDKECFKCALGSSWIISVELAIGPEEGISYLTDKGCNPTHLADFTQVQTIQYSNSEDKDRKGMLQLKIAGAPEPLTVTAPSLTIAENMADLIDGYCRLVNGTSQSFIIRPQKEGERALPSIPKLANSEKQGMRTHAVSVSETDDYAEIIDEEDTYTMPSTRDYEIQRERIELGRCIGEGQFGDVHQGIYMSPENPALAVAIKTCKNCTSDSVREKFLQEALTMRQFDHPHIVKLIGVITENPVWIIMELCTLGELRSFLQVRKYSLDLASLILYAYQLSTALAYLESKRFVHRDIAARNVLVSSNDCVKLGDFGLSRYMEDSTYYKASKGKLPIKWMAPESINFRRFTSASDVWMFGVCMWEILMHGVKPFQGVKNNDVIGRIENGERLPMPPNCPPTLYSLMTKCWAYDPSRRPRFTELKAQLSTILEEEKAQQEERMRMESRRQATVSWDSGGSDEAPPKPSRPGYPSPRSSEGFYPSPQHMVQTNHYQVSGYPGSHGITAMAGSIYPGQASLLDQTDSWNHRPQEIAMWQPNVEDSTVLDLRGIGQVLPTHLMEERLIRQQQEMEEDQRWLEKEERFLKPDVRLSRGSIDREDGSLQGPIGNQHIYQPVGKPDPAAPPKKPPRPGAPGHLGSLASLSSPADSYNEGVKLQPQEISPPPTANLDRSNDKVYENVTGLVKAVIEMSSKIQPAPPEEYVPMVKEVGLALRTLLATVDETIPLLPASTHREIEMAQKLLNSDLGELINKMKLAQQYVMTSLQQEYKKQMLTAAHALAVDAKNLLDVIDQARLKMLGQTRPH

## CSc1ncnc2c1ccn2C1O[C@H](COP(=O)(O)O)[C@@H](O)[C@H]1O (stereo partly drawn) [INT2-31, 4-(Methylthio)-7-(5-O-phosphono-D-ribofuranosyl)-{7H-Pyrrolo[2,3-d]pyrimidine}]
A375 subcutaneous tumor
  subcutaneous tumor growth compared to PBS control: significant decrease
[1]; 48 hours of treatment
  PARP and caspase-9 cleavage: PARP and caspase-9 cleavage
[1]; Western blot
  caspase 8 levels: no significant effect
FAK and IGF-1R
  IC50: 3.17 µM
